Measurements as given in patent US8299037B2, “Feed or pharmaceutical composition comprising apramycin or an adequate salt thereof” (Poulpharm B.V.B.A., priority 2007, dated 2012).
“Also recorded” adds a separate entry of the source.

Key:
Histomonas meleagridis [1] = experiment: Prophylaxis of histomoniasis in turkey poults inoculated intracloacally, apramycin in feed (Example 1); type: in vivo, turkeys
From the text: The objective of the study was to investigate the activity of apramycin as prophylactic agent against a Histomonas meleagridis strain isolated from an outbreak of histomoniasis in turkeys in Belgium (September 2005). The antibiotic (apramycin) was supplemented through the feed at 550 g of the test product/MT of feed (Ap 550) in the challenged birds. This medicated group was compared with an Infected Untreated Control (IUC) and an Uninfected Untreated Control group (UUC).
Seventy five (75) one day old male animals (turkey poults) were enrolled in the study and randomly allocated to 3 groups of 25 animals per pen. During the whole study (from day 1 to day 38), Treatment 1 (UUC) and 2 (IUC) received standard animal (turkey) feed without supplementation, whereas Treatment 3, received feed supplemented with apramycin sulphate. On day 22, Treatments 2 and 3 were inoculated intracloacally with Histomonas meleagridis. From that day one, the animals were clinically observed on a daily base. At the end of the study, D38, all remaining animals were euthanized and necropsied and lesion scored for caeca and liver.
All animals (turkeys) died during the challenge period were necropsied to determine the cause of death. […] (see Table 1 and FIG. 1).

Histomonas meleagridis [2] = conditions: cited from earlier work
Histomonas meleagridis [3] = experiment: Prophylaxis of histomoniasis in turkey poults inoculated intracloacally, apramycin in feed (Example 1); type: in vivo; conditions: live weight at the end of the study; 550 g/MT of feed, turkeys
Histomonas meleagridis [4] = conditions: turkeys; cited from earlier work
[5] = necropsy, 550 g/MT of feed, turkeys
[6] = 300 ppm, inoculated broiler chickens

CN[C@@H]1[C@@H](O[C@H]2O[C@H](CO)[C@@H](N)[C@H](O)[C@H]2O)OC2C[C@@H](N)[C@@H](O[C@H]3[C@H](O)[C@@H](O)[C@H](N)C[C@@H]3N)OC2[C@@H]1O (stereo partly drawn) [Ap 550, Apramycin]
Mortality due to histomoniasis (% Cumulative) (Histomonas meleagridis [1]; D 7 PI, 550 g/MT of feed, turkeys): 0.00% | Mortality due to histomoniasis (% Cumulative) (Histomonas meleagridis [1]; D 8 PI, 550 g/MT of feed, turkeys): 0.00% | Mortality due to histomoniasis (% Cumulative) (Histomonas meleagridis [1]; D 9 PI, 550 g/MT of feed, turkeys): 0.00% | Mortality due to histomoniasis (% Cumulative) (Histomonas meleagridis [1]; D 10 PI, 550 g/MT of feed, turkeys): 0.00% | Mortality due to histomoniasis (% Cumulative) (Histomonas meleagridis [1]; D11 PI, 550 g/MT of feed, turkeys): 0.00% | Mortality due to histomoniasis (% Cumulative) (Histomonas meleagridis [1]; D 12 PI, 550 g/MT of feed, turkeys): 0.00% | Mortality due to histomoniasis (% Cumulative) (Histomonas meleagridis [1]; D 13 PI, 550 g/MT of feed, turkeys): 0.00% | Mortality due to histomoniasis (% Cumulative) (Histomonas meleagridis [1]; D 14 PI, 550 g/MT of feed, turkeys): 0.00% | Mortality due to histomoniasis (% Cumulative) (Histomonas meleagridis [1]; D 15 PI, 550 g/MT of feed, turkeys): 0.00% | Mortality due to histomoniasis (% Cumulative) (Histomonas meleagridis [1]; D 16 PI, 550 g/MT of feed, turkeys): 0.00% | Mortality during the challenge period (in words) (Histomonas meleagridis [1]; inoculated turkeys, apramycin continuously in the feed): significant effect in reducing the mortality; also recorded: not a single animal died | Mean lesion score at necropsy, Caecum score (Histomonas meleagridis [1]; [5]): 0.45 | Mean lesion score at necropsy, Liver score (Histomonas meleagridis [1]; [5]): 0.00 | Protection against the infection by Histomonas meleagridis (in words) (Histomonas meleagridis [1]; turkeys, 550 g/MT of feed): does provide active protection | Liver and caecal lesion scores (in words) (Histomonas meleagridis [1]; turkeys, apramycin continuously in the feed): reduced significantly | In-vivo use against histomoniasis (in words) (Histomonas meleagridis [2]; 300 ppm in broilers): ineffective | Weight gain (in words) (Histomonas meleagridis [2]; 300 ppm in broilers): no amelioration | Caecal histomoniasis lesions (in words) (Histomonas meleagridis [2]; [6]): No amelioration | Liver lesions / liver lesion scores (in words) (Histomonas meleagridis [2]; [6]): some reduction | Average Weight at D40 (Histomonas meleagridis [3]): 1.40 kg | Treatment effect on histomoniasis (in words) (Histomonas meleagridis [4]): No significant treatment effect
